# Test results from patent US10875851B2, “Factor XIIa inhibitors” (Merck Sharp & Dohme Corp., priority 2016, dated 2020).
# Biological target: human Factor XIIa (Homo sapiens (Human), UniProt P00748)
# Assay: Factor XIIa Assay
# Format: biochemical
# Details: purified human Factor XIIa 500 pM; substrate n-Acetyl-Lys-Pro-Arg-AFC 100 μM; pH 7.4; read-out: FXIIa IC50
# In short: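 Purified human FXIIa at 500 pM final with 100 μM n-Acetyl-Lys-Pro-Arg-AFC in 50 mM HEPES, 150 mM NaCl, 5 mM CaCl2, 0.1% PEG 8000, pH 7.4, at room temperature or 37° C. Initial fluorogenic hydrolysis rates measured after enzyme–inhibitor equilibration; IC50 taken where Vi=Vo/2.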
# human Factor XIIa, sequence (P00748 373-615): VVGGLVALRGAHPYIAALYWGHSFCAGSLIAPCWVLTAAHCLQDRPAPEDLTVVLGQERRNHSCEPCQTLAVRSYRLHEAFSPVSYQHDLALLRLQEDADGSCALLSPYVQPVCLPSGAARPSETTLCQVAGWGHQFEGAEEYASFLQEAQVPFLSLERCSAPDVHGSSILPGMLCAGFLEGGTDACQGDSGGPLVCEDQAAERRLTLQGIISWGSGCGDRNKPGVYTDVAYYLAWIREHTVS
row,SMILES,IC50
1,"NCc1ccc(CNC(=O)[C@@H]2CN(C(=O)Oc3cccc4ccccc34)CCN2C(=O)[C@@H](CC2CCCCC2)NC2CCCCC2)cc1 [Example 26, naphthalen-1-yl (3S)-3-{[4-(aminomethyl)benzyl]carbamoyl}-4-(N,3-dicyclohexyl-D-alanyl)piperazine-1-carboxylate]",8.4 nM
2,"COc1cc(CNC(=O)[C@@H]2CN(C(=O)Oc3ccc4ccccc4c3Cl)CCN2C(=O)[C@H](N)CCCCN(C)C)ccc1CN [Example 89, 1-chloronaphthalen-2-yl (3S)-3-{[4-(aminomethyl)-3-methoxybenzyl]carbamoyl}-4-(N^6,N^6-dimethyl-D-lysyl)piperazine-1-carboxylate]",1.7 nM
3,"C[C@@H]1N=C(N2CCN(C(=O)[C@@H](CCCCN(C)C)NC3CCC4(CC3)CCN(Cc3ccccc3)C4)[C@H](C(=O)NCc3cccs3)C2)O[C@H]1c1ccccc1 (stereo partly drawn) [Example 130, (2S)-1-[N^2-(2-benzyl-2-azaspiro[4.5]dec-8-yl)-N^6,N^6-dimethyl-D-lysyl]-4-[(4S,5S)-4-methyl-5-phenyl-4,5-dihydro-1,3-oxazol-2-yl]-N-(thiophen-2-ylmethyl)piperazine-2-carboxamide]",1.2 nM
4,"NCc1ccc(CNC(=O)[C@@H]2CN(C(=O)Oc3ccccc3Cl)CCN2C(=O)[C@@H](CC2CCCCC2)NC2CCCCC2)cc1 [Example 5, 2-chlorophenyl (3S)-3-{[4-(aminomethyl)benzyl]carbamoyl}-4-(N,3-dicyclohexyl-D-alanyl)piperazine-1-carboxylate]",5.9 nM
5,"CN(C)CCCC[C@@H](NC1CCC2(CC1)CCN(Cc1ccccc1)C2)C(=O)N1CCN(C(=O)Oc2ccccc2Cl)C[C@H]1C(=O)NCc1cccs1 (stereo partly drawn) [Example 90, 2-chlorophenyl (3S)-4-[N^2-(2-benzyl-2-azaspiro[4.5]dec-8-yl)-N^6,N^6-dimethyl-D-lysyl]-3-[(thiophen-2-ylmethyl)carbamoyl]piperazine-1-carboxylate]",0.7 nM
6,"C[C@@H]1N=C(N2CCN(C(=O)[C@@H](CCCCN)NC3CCC4(CC3)CCN(Cc3ccccc3)C4)[C@H](C(=O)NCc3cccs3)C2)O[C@H]1c1ccccc1 (stereo partly drawn) [Example 129, (2S)-1-[N^2-(2-benzyl-2-azaspiro[4.5]dec-8-yl)-D-lysyl]-4-[(4S,5S)-4-methyl-5-phenyl-4,5-dihydro-1,3-oxazol-2-yl]-N-(thiophen-2-ylmethyl)piperazine-2-carboxamide]",13 nM
7,"C[C@@H]1N=C(N2CCN(C(=O)[C@@H](CCCCN(C)C)N(C)C3CCC4(CC3)CCN(Cc3ccccc3)C4)[C@H](C(=O)NCc3cccs3)C2)O[C@H]1c1ccccc1 (stereo partly drawn) [Example 131, (2S)-1-[N^2-(2-benzyl-2-azaspiro[4.5]dec-8-yl)-N^2,N^6,N^6-trimethyl-D-lysl]-4-[(4S,5S)-4-methyl-5-phenyl-4,5-dihydro-1,3-oxazol-2-yl]-N-(thiophen-2-ylmethyl)piperazine-2-carboxamide]",1.8 nM
8,"CC(C)N[C@H](CCCCN1CCCCC1)C(=O)N1CCN(C2=N[C@@H](C)[C@H](c3ccccc3)O2)C[C@H]1C(=O)NCc1ccc(CN)cc1 [Example 180, (2S)-N-[4-(aminomethyl)benzyl]-1-[N-(1-methylethyl)-6-piperidin-1-yl-D-norleucyl]-4-[(4S,5S)-4-methyl-5-phenyl-4,5-dihydro-1,3-oxazol-2-yl]piperazine-2-carboxamide]",47.1 nM
9,"COC(N)c1cccc(OC(=O)N2CCN(C(=O)[C@@H](CCCCNS(C)(=O)=O)NC3CCC4(CC3)CCN(Cc3ccccc3)C4)[C@H](C(=O)NCc3cccs3)C2)c1 (stereo partly drawn) [Example 75, 3-[amino(methoxy)methyl]phenyl (3S)-4-[N^2-(2-benzyl-2-azaspiro[4.5]dec-8-yl)-N^6-(methylsulfonyl)-D-lysyl]-3-[(thiophen-2-ylmethyl)carbamoyl]piperazine-1-carboxylate]",5.7 nM
10,"COc1cc(CNC(=O)[C@@H]2CN(C(=O)Oc3ccc4ccccc4c3Cl)CCN2C(=O)[C@@H](CC2CCCCC2)NC2CCCCC2)ccc1CN [Example 44, 1-chloronaphthalen-2-yl (3S)-3-{[4-(aminomethyl)-3-methoxybenzyl]carbamoyl}-4-(N,3-dicyclohexyl-D-alanyl)piperazine-1-carboxylate]",2.7 nM
11,"CC(C)NCCCC[C@@H](NC(C)C)C(=O)N1CCN(C2=N[C@@H](C)[C@H](c3ccccc3)O2)C[C@H]1C(=O)NCc1cccc(Cl)c1 [Example 166, (2S)-1-[N^2,N^6-bis(1-methylethyl)-D-lysyl]-N-(3-chlorobenzyl)-4-[(4S,5S)-4-methyl-5-phenyl-4,5-dihydro-1,3-oxazol-2-yl]piperazine-2-carboxamide]",6.8 nM
12,"CC(C)N[C@H](CCCCN1CCCCC1)C(=O)N1CCN(C2=NC(C)(C)C(c3ccccc3)O2)C[C@H]1C(=O)NCc1cccc(Cl)c1 (stereo partly drawn) [Example 160, (2S)-N-(3-chlorobenzyl)-4-(4,4-dimethyl-5-phenyl-4,5-dihydro-1,3-oxazol-2-yl)-1-[N-(1-methylethyl)-6-piperidin-1-yl-D-norleucyl]piperazine-2-carboxamide]",13.8 nM
13,"O=C(NCc1cccs1)[C@@H]1CN(C(=O)Oc2cccc3cccnc23)CCN1C(=O)[C@@H](CC1CCCCC1)NC1CCCCC1 [Example 30, quinolin-8-yl (3S)-4-(N,3-dicyclohexyl-D-alanyl)-3-[(thiophen-2-ylmethyl)carbamoyl]piperazine-1-carboxylate]",5.8 nM
14,"C[C@@H]1N=C(N2CCN(C(=O)[C@@H](CCCCNS(C)(=O)=O)NC3CCCCC3)[C@H](C(=O)NCc3cccs3)C2)O[C@H]1c1cccc(Br)c1 [Example 124, (2S)-4-[(4S,5S)-5-(3-bromophenyl)-4-methyl-4,5-dihydro-1,3-oxazol-2-yl]-1-[N^2-cyclohexyl-N^6-(methylsulfonyl)-D-lysyl]-N-(thiophen-2-ylmethyl)piperazine-2-carboxamide]",24.6 nM
15,"C[C@@H]1N=C(N2CCN(C(=O)[C@@H](CC3CCN(C4CCC(C(N)=O)CC4)CC3)NC3CCC(C(N)=O)CC3)[C@H](C(=O)NCc3cccs3)C2)O[C@H]1c1ccccc1 (stereo partly drawn) [Example 182, (2S)-1-{N-(4-carbamoylcyclohexyl)-3-[1-(4-carbamoylcyclohexyl)piperidin-4-yl]-D-alanyl}-4-[(4S,5S)-4-methyl-5-phenyl-4,5-dihydro-1,3-oxazol-2-yl]-N-(thiophen-2-ylmethyl)piperazine-2-carboxamide]",34.2 nM
16,"COc1cc(CNC(=O)[C@@H]2CN(C3=NC(C)(C)[C@H](c4ccccc4)O3)CCN2C(=O)[C@@H](CCCCN(C)C)N(C)C)ccc1CN [Example 153, (2S)-N-[4-(aminomethyl)-3-methoxybenzyl]-4-[(5S)-4,4-dimethyl-5-phenyl-4,5-dihydro-1,3-oxazol-2-yl]-1-(N^2,N^2,N^6,N^6-tetramethyl-D-lysyl)piperazine-2-carboxamide]",7.4 nM
17,"CC(C)N[C@H](CCCCN1CCCCC1)C(=O)N1CCN(C2=N[C@@H](C)[C@H](c3ccccc3)O2)C[C@H]1C(=O)NCc1cc2cnccc2s1 [Example 173, (2S)-1-[N-(1-methylethyl)-6-piperidin-1-yl-D-norleucyl]-4-[(4S,5S)-4-methyl-5-phenyl-4,5-dihydro-1,3-oxazol-2-yl]-N-(thieno[3,2-c]pyridin-2-ylmethyl)piperazine-2-carboxamide]",3.9 nM
